Measured values taken from patent US9695155B2, “Herbicidal substituted pyrimidinyloxy benzene compounds” (E. I. DU PONT DE NEMOURS AND COMPANY, priority 2013, dated 2017).

Key:
[1] = tested on: bromegrass, downy; experiment: Test D postemergence; assay type: in vivo, Bromus tectorum; details: Postemergence, scale 0 to 100 (0 no effect, 100 complete control)
In short: (§1)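 Visual ratings from 0 (no effect) to 100 (complete control) relative to untreated plants were taken 7–21 days after treatment. Chemicals in a surfactant-containing solvent mixture were applied preemergence to seeds in silt loam, or postemergence to plants 2–18 cm tall (1–4 leaves) grown in a peat-based potting medium.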

[2] = tested on: wild mustard; experiment: Test D postemergence; assay type: in vivo, Sinapis arvensis
In short: as §1

[3] = tested on: field poppy; experiment: Test D preemergence; assay type: in vivo, Papaver rhoeas
In short: as §1

[4] = tested on: bromegrass, downy; experiment: Test D preemergence; assay type: in vivo, Bromus tectorum
In short: as §1

[5] = tested on: chamomile; experiment: Test D preemergence; assay type: in vivo, Matricaria inodora
In short: as §1

[6] = tested on: field violet; experiment: Test D preemergence; assay type: in vivo, Viola arvensis
In short: as §1

[7] = tested on: spring wheat; experiment: Test D postemergence; assay type: in vivo, Triticum aestivum
In short: as §1

[8] = tested on: winter wheat; experiment: Test D postemergence; assay type: in vivo, Triticum aestivum
In short: as §1

[9] = tested on: lambsquarters; experiment: Test D preemergence; assay type: in vivo, Chenopodium album
In short: as §1

[10] = tested on: field poppy; experiment: Test D postemergence; assay type: in vivo, Papaver rhoeas
In short: as §1

[11] = tested on: wild oat; experiment: Test D postemergence; assay type: in vivo, Avena fatua
In short: as §1

[12] = 62 g ai/ha, scale 0 to 100 (0 no effect, 100 complete control)
[13] = 125 g ai/ha, scale 0 to 100 (0 no effect, 100 complete control)
[14] = 250 g ai/ha, scale 0 to 100 (0 no effect, 100 complete control)
[15] = 31 g ai/ha, scale 0 (no effect) to 100 (complete control)

Q: Which results are given for Fc1cccc(Oc2ncc(Cl)cn2)c1-n1cc(Br)cn1 [Compound 178, 2-[2-(4-bromo-1H-pyrazol-1-yl)-3-fluorophenoxy]-5-chloropyrimidine]?
A: pest or weed control at 16 g/ha ([1]; Bromus tectorum, post-emergence, 16 g ai/ha, read-out: Plant response rating, Bromegrass, Downy): 5%; pest or weed control at 31 g/ha ([1]; Bromus tectorum, post-emergence, 31 g ai/ha, read-out: Plant response rating, Bromegrass, Downy): 5%; pest or weed control at 62 g/ha ([1]; Bromus tectorum, post-emergence, 62 g ai/ha, read-out: Plant response rating, Bromegrass, Downy): 10%; pest or weed control at 125 g/ha ([1]; Bromus tectorum, post-emergence, 125 g ai/ha, read-out: Plant response rating, Bromegrass, Downy): 20%; pest or weed control at 16 g/ha ([2]; Brassica, post-emergence, 16 g ai/ha, scale 0-100, read-out: Plant response rating, Mustard, Wild): 70%; pest or weed control at 31 g/ha ([2]; Brassica, post-emergence, 31 g ai/ha, scale 0 to 100 (0 no effect, 100 complete control), read-out: Plant response rating, Mustard, Wild): 75%; pest or weed control at 62 g/ha ([2]; Brassica, post-emergence, 62 g ai/ha, scale 0 to 100 (0 no effect, 100 complete control), read-out: Plant response rating, Mustard, Wild): 75%; pest or weed control at 125 g/ha ([2]; Brassica, post-emergence, 125 g ai/ha, scale 0 to 100 (0 no effect, 100 complete control), read-out: Plant response rating, Mustard, Wild): 100%; pest or weed control at 16 g/ha ([3]; Papaver rhoeas, pre-emergence, 16 g ai/ha, scale 0 (no effect) to 100 (complete control), read-out: Plant response rating, Field Poppy): 20%; pest or weed control at 31 g/ha ([3]; Papaver rhoeas, pre-emergence, 31 g ai/ha, scale 0-100, read-out: Plant response rating, Field Poppy): 70%; pest or weed control at 62 g/ha ([3]; Papaver rhoeas, pre-emergence, 62 g ai/ha, scale 0-100, read-out: Plant response rating, Field Poppy): 85%; pest or weed control at 125 g/ha ([3]; Papaver rhoeas, pre-emergence, 125 g ai/ha, scale 0-100, read-out: Plant response rating, Field Poppy): 85%; pest or weed control at 16 g/ha ([4]; Bromus tectorum, pre-emergence, 16 g ai/ha, scale 0 (no effect) to 100 (complete control), read-out: Plant response rating, Bromegrass, Downy): 0%; pest or weed control at 31 g/ha ([4]; Bromus tectorum, pre-emergence, 31 g ai/ha, scale 0-100, read-out: Plant response rating, Bromegrass, Downy): 0%; pest or weed control at 62 g/ha ([4]; Bromus tectorum, pre-emergence, 62 g ai/ha, scale 0-100, read-out: Plant response rating, Bromegrass, Downy): 0%; pest or weed control at 125 g/ha ([4]; Bromus tectorum, pre-emergence, 125 g ai/ha, scale 0-100, read-out: Plant response rating, Bromegrass, Downy): 10%; pest or weed control at 16 g/ha ([5]; Tripleurospermum inodorum, pre-emergence, 16 g ai/ha, scale 0 (no effect) to 100 (complete control), read-out: Plant response rating, Chamomile): 0%; pest or weed control at 31 g/ha ([5]; Tripleurospermum inodorum, pre-emergence, 31 g ai/ha, scale 0-100, read-out: Plant response rating, Chamomile): 70%; pest or weed control at 62 g/ha ([5]; Tripleurospermum inodorum, pre-emergence, 62 g ai/ha, scale 0-100, read-out: Plant response rating, Chamomile): 55%; pest or weed control at 125 g/ha ([5]; Tripleurospermum inodorum, pre-emergence, 125 g ai/ha, scale 0-100, read-out: Plant response rating, Chamomile): 60%; pest or weed control at 16 g/ha ([6]; Viola arvensis, pre-emergence, 16 g ai/ha, scale 0 (no effect) to 100 (complete control), read-out: Plant response rating, Field Violet): 20%; pest or weed control at 62 g/ha ([6]; Viola arvensis, pre-emergence, 62 g ai/ha, scale 0-100, read-out: Plant response rating, Field Violet): 90%; pest or weed control at 125 g/ha ([6]; Viola arvensis, pre-emergence, 125 g ai/ha, scale 0-100, read-out: Plant response rating, Field Violet): 100%; plant injury at 16 g/ha ([7]; Triticum aestivum, post-emergence, 16 g ai/ha, scale 0-100, read-out: Plant response rating, Wheat, Spring): 0%; plant injury at 31 g/ha ([7]; Triticum aestivum, post-emergence, 31 g ai/ha, scale 0 to 100 (0 no effect, 100 complete control), read-out: Plant response rating, Wheat, Spring): 0%; plant injury at 62 g/ha ([7]; Triticum aestivum, post-emergence, 62 g ai/ha, scale 0 to 100 (0 no effect, 100 complete control), read-out: Plant response rating, Wheat, Spring): 0%; plant injury at 125 g/ha ([7]; Triticum aestivum, post-emergence, 125 g ai/ha, scale 0 to 100 (0 no effect, 100 complete control), read-out: Plant response rating, Wheat, Spring): 5%; plant injury at 16 g/ha ([8]; Triticum aestivum, post-emergence, 16 g ai/ha, scale 0-100, read-out: Plant response rating, Wheat, Winter): 0%; plant injury at 31 g/ha ([8]; Triticum aestivum, post-emergence, 31 g ai/ha, scale 0 to 100 (0 no effect, 100 complete control), read-out: Plant response rating, Wheat, Winter): 0%; plant injury at 62 g/ha ([8]; Triticum aestivum, post-emergence, 62 g ai/ha, scale 0 to 100 (0 no effect, 100 complete control), read-out: Plant response rating, Wheat, Winter): 0%; plant injury at 125 g/ha ([8]; Triticum aestivum, post-emergence, 125 g ai/ha, scale 0 to 100 (0 no effect, 100 complete control), read-out: Plant response rating, Wheat, Winter): 10%; pest or weed control at 16 g/ha ([9]; Chenopodium album, pre-emergence, 16 g ai/ha, scale 0 (no effect) to 100 (complete control), read-out: Plant response rating, Lambsquarters): 20%; pest or weed control at 31 g/ha ([9]; Chenopodium album, pre-emergence, 31 g ai/ha, scale 0-100, read-out: Plant response rating, Lambsquarters): 70%; pest or weed control at 62 g/ha ([9]; Chenopodium album, pre-emergence, 62 g ai/ha, scale 0-100, read-out: Plant response rating, Lambsquarters): 80%; pest or weed control at 125 g/ha ([9]; Chenopodium album, pre-emergence, 125 g ai/ha, scale 0-100, read-out: Plant response rating, Lambsquarters): 85%; pest or weed control at 16 g/ha ([10]; Papaver rhoeas, post-emergence, 16 g ai/ha, scale 0-100, read-out: Plant response rating, Field Poppy): 45%; pest or weed control at 31 g/ha ([10]; Papaver rhoeas, post-emergence, 31 g ai/ha, scale 0 to 100 (0 no effect, 100 complete control), read-out: Plant response rating, Field Poppy): 55%; pest or weed control at 62 g/ha ([10]; Papaver rhoeas, post-emergence, 62 g ai/ha, scale 0 to 100 (0 no effect, 100 complete control), read-out: Plant response rating, Field Poppy): 65%; pest or weed control at 125 g/ha ([10]; Papaver rhoeas, post-emergence, 125 g ai/ha, scale 0 to 100 (0 no effect, 100 complete control), read-out: Plant response rating, Field Poppy): 75%; pest or weed control at 16 g/ha ([11]; Avena fatua, post-emergence, 16 g ai/ha, scale 0-100, read-out: Plant response rating, Oat, Wild): 20%; pest or weed control at 31 g/ha ([11]; Avena fatua, post-emergence, 31 g ai/ha, scale 0 to 100 (0 no effect, 100 complete control), read-out: Plant response rating, Oat, Wild): 25%; pest or weed control at 62 g/ha ([11]; Avena fatua, post-emergence, 62 g ai/ha, scale 0 to 100 (0 no effect, 100 complete control), read-out: Plant response rating, Oat, Wild): 25%; pest or weed control at 125 g/ha ([11]; Avena fatua, post-emergence, 125 g ai/ha, scale 0 to 100 (0 no effect, 100 complete control), read-out: Plant response rating, Oat, Wild): 25%

Q: Which results are given for N#Cc1cccc(Oc2ncc(Cl)cn2)c1-n1cc(-n2ccc(C(F)(F)F)n2)cn1 [Compound 284]?
A: Plant response rating, Bromegrass, Downy ([1]; 62 g ai/ha): 40; Plant response rating, Bromegrass, Downy ([1]; 31 g ai/ha): 30; Plant response rating, Bromegrass, Downy ([1]; 125 g ai/ha): 45; Plant response rating, Bromegrass, Downy ([1]; 250 g ai/ha): 45; Plant response rating, Mustard, Wild ([2]; 31 g ai/ha, scale 0-100): 100; Plant response rating, Mustard, Wild [2, 12]: 100; Plant response rating, Mustard, Wild [2, 13]: 100; Plant response rating, Mustard, Wild [2, 14]: 100; Plant response rating, Field Poppy [3, 15]: 100; Plant response rating, Field Poppy ([3]; 62 g ai/ha, scale 0-100): 100; Plant response rating, Field Poppy ([3]; 125 g ai/ha, scale 0-100): 100; Plant response rating, Field Poppy ([3]; 250 g ai/ha, scale 0-100): 100; Plant response rating, Bromegrass, Downy [4, 15]: 0; Plant response rating, Bromegrass, Downy ([4]; 62 g ai/ha, scale 0-100): 0; Plant response rating, Bromegrass, Downy ([4]; 125 g ai/ha, scale 0-100): 0; Plant response rating, Bromegrass, Downy ([4]; 250 g ai/ha, scale 0-100): 10; Plant response rating, Chamomile [5, 15]: 100; Plant response rating, Chamomile ([5]; 62 g ai/ha, scale 0-100): 100; Plant response rating, Chamomile ([5]; 125 g ai/ha, scale 0-100): 100; Plant response rating, Chamomile ([5]; 250 g ai/ha, scale 0-100): 100; Plant response rating, Field Violet [6, 15]: 45; Plant response rating, Field Violet ([6]; 62 g ai/ha, scale 0-100): 100; Plant response rating, Field Violet ([6]; 125 g ai/ha, scale 0-100): 100; Plant response rating, Field Violet ([6]; 250 g ai/ha, scale 0-100): 100; Plant response rating, Wheat, Spring ([7]; 31 g ai/ha, scale 0-100): 15; Plant response rating, Wheat, Spring [7, 12]: 25; Plant response rating, Wheat, Spring [7, 13]: 30; Plant response rating, Wheat, Spring [7, 14]: 35; Plant response rating, Wheat, Winter ([8]; 31 g ai/ha, scale 0-100): 10; Plant response rating, Wheat, Winter [8, 12]: 25; Plant response rating, Wheat, Winter [8, 13]: 20; Plant response rating, Wheat, Winter [8, 14]: 25; Plant response rating, Lambsquarters [9, 15]: 30; Plant response rating, Lambsquarters ([9]; 62 g ai/ha, scale 0-100): 100; Plant response rating, Lambsquarters ([9]; 125 g ai/ha, scale 0-100): 100; Plant response rating, Lambsquarters ([9]; 250 g ai/ha, scale 0-100): 100; Plant response rating, Field Poppy ([10]; 31 g ai/ha, scale 0-100): 65; Plant response rating, Field Poppy [10, 12]: 70; Plant response rating, Field Poppy [10, 13]: 100; Plant response rating, Field Poppy [10, 14]: 100; Plant response rating, Oat, Wild ([11]; 31 g ai/ha, scale 0-100): 20; Plant response rating, Oat, Wild [11, 12]: 25; Plant response rating, Oat, Wild [11, 13]: 25; Plant response rating, Oat, Wild [11, 14]: 35
